Values quoted from earlier work, collected in US9744299B2, “Data processing device for an anesthesia device” (Dräger Medical GmbH, priority 2012, dated 2017).
Like-named read-outs stand apart in the source and are kept apart here.

Assays:
patients [1] = settings: steepness of the rise of the response surface; property of the drug
patients [2] = settings: effect-site concentration, 50% of patients tolerate "Shake and Shout"

In the case of `CC(C)c1cccc(C(C)C)c1O` [Propofol, propofol], the “h (Steepness)” value (patients [1]) is given as 3.46 and the C50hyp (patients [2]; C50Prop) is given as 2.99 µg/mL.
For `FCOC(C(F)(F)F)C(F)(F)F` [sevoflurane], the C50hyp (patients [2]; C50Vol) is given as 1.47 vol. %.
